Test: xn = mol fraction of the nth substance listed

CCCC[n+]1ccccc1.F[B-](F)(F)F + CCCC[n+]1ccccc1.O=S(=O)([N-]S(=O)(=O)C(F)(F)F)C(F)(F)F
101 kPa, x2 = 0
Details | viscosity [mPa·s]
303.15 K | 123.6
353.15 K | 17.7

COCCOCCOC + CCCC[n+]1ccn(C)c1.F[B-](F)(F)F
100 kPa
Details | viscosity [mPa·s]
283.15 K, x2 = 0.05926 | 2.33
283.15 K, x2 = 0.1017 | 2.93
283.15 K, x2 = 0.193 | 4.788
283.15 K, x2 = 0.2925 | 8.04
283.15 K, x2 = 0.3989 | 14.34
283.15 K, x2 = 0.4972 | 23.78
283.15 K, x2 = 0.5761 | 35.48
283.15 K, x2 = 0.6977 | 62.63
283.15 K, x2 = 0.7915 | 93.5
283.15 K, x2 = 0.8978 | 151.1
283.15 K, x2 = 0.9426 | 187.3
293.15 K, x2 = 0.05427 | 1.895
293.15 K, x2 = 0.1026 | 2.374
293.15 K, x2 = 0.195 | 3.051
293.15 K, x2 = 0.2987 | 6.258
293.15 K, x2 = 0.3891 | 9.33
293.15 K, x2 = 0.4902 | 16.39
293.15 K, x2 = 0.5631 | 22.79
293.15 K, x2 = 0.6762 | 35.31
293.15 K, x2 = 0.7902 | 55.27
293.15 K, x2 = 0.8969 | 86
293.15 K, x2 = 0.9436 | 103.9
303.15 K, x2 = 0.04967 | 1.214
303.15 K, x2 = 0.05867 | 1.133
303.15 K, x2 = 0.1027 | 1.519
303.15 K, x2 = 0.1925 | 2.927
303.15 K, x2 = 0.2857 | 4.426
303.15 K, x2 = 0.4003 | 7.339
303.15 K, x2 = 0.4952 | 10.86
303.15 K, x2 = 0.5755 | 15.38
303.15 K, x2 = 0.6993 | 24.97
303.15 K, x2 = 0.7943 | 35.15
303.15 K, x2 = 0.8999 | 51.8
303.15 K, x2 = 0.9387 | 59.7
313.15 K, x2 = 0.08858 | 1.238
313.15 K, x2 = 0.168 | 1.472
313.15 K, x2 = 0.2583 | 2.155
313.15 K, x2 = 0.3563 | 3.486
313.15 K, x2 = 0.4578 | 5.566
313.15 K, x2 = 0.5473 | 8.36
313.15 K, x2 = 0.6683 | 12.94
313.15 K, x2 = 0.7655 | 18.99
313.15 K, x2 = 0.8894 | 28.19
313.15 K, x2 = 0.9307 | 31.25

COCCOCCOC + CCCC[n+]1ccn(C)c1.F[P-](F)(F)(F)(F)F
100 kPa
Details | viscosity [mPa·s]
283.15 K, x2 = 0.2056 | 7.206
283.15 K, x2 = 0.5857 | 63.81
283.15 K, x2 = 0.8057 | 237.7
283.15 K, x2 = 0.8992 | 407
293.15 K, x2 = 0.1028 | 2.611
293.15 K, x2 = 0.4923 | 23.24
293.15 K, x2 = 0.5839 | 39.17
293.15 K, x2 = 0.9523 | 295.7
303.15 K, x2 = 0.0572 | 1.283
303.15 K, x2 = 0.3956 | 8.98
303.15 K, x2 = 0.7842 | 65.7
313.15 K, x2 = 0.3979 | 4.083
313.15 K, x2 = 0.5861 | 13.01

COCCOCCOC + CCCC[n+]1ccn(C)c1.O=S(=O)([N-]S(=O)(=O)C(F)(F)F)C(F)(F)F
Details | electrical conductivity [S/m]
294.5 K, 100 kPa, x2 = 0.03433 | 0.44

NC(N)=NCCC[C@H](N)C(=O)O + CCCC[n+]1ccn(C)c1.[Br-] + O
viscosity [mPa·s], 101.3 kPa
Details | 293.15 K | 298.15 K | 303.15 K | 308.15 K | 313.15 K
x1 = 0.000359, x2 = 0 | 1.013 | 0.904 | 0.839 | 0.771 | 0.691
x1 = 0.0003655, x2 = 0.00072 | 1.037 | 0.922 | 0.833 | 0.754 | 0.688
x1 = 0.0003655, x2 = 0.001439 | 1.058 | 0.914 | 0.816 | 0.744 | 0.675
x1 = 0.0007208, x2 = 0 | 1.025 | 0.915 | 0.851 | 0.783 | 0.703
x1 = 0.0007266, x2 = 0.0007198 | 1.048 | 0.933 | 0.844 | 0.766 | 0.7
x1 = 0.0007324, x2 = 0.001438 | 1.069 | 0.925 | 0.827 | 0.756 | 0.686
x1 = 0.001079, x2 = 0 | 1.036 | 0.927 | 0.863 | 0.795 | 0.715
x1 = 0.001088, x2 = 0.0007195 | 1.059 | 0.944 | 0.855 | 0.777 | 0.712
x1 = 0.001098, x2 = 0.001438 | 1.08 | 0.936 | 0.838 | 0.767 | 0.698
x1 = 0.001446, x2 = 0 | 1.047 | 0.938 | 0.874 | 0.806 | 0.726
x1 = 0.001452, x2 = 0.0007192 | 1.07 | 0.955 | 0.866 | 0.788 | 0.723
x1 = 0.001462, x2 = 0.001437 | 1.091 | 0.947 | 0.849 | 0.778 | 0.709
x1 = 0.001811, x2 = 0.000719 | 1.081 | 0.966 | 0.877 | 0.799 | 0.734
x1 = 0.00182, x2 = 0 | 1.059 | 0.949 | 0.885 | 0.817 | 0.737
x1 = 0.001827, x2 = 0.001437 | 1.102 | 0.958 | 0.86 | 0.789 | 0.72
x1 = 0.002121, x2 = 0.001436 | 1.114 | 0.97 | 0.872 | 0.801 | 0.732
x1 = 0.002158, x2 = 0 | 1.073 | 0.961 | 0.897 | 0.829 | 0.749
x1 = 0.002174, x2 = 0.0007187 | 1.093 | 0.978 | 0.889 | 0.811 | 0.746
x1 = 0.002516, x2 = 0 | 1.087 | 0.975 | 0.911 | 0.843 | 0.763
x1 = 0.002537, x2 = 0.0007185 | 1.106 | 0.991 | 0.902 | 0.824 | 0.759
x1 = 0.002557, x2 = 0.001436 | 1.127 | 0.983 | 0.885 | 0.814 | 0.745

Source: the CheMixHub ionic liquid set
